# Data taken from ChEMBL document CHEMBL1201862, “PubChem BioAssay data set” (2004).
#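 Where inhibition never reached the appropriate level, the endpoint shown equals the highest concentration tested. Otherwise, values were interpolated linearly from a five-concentration, 48-hour dose response in 96-well plates. GI50 = concentration required for 50% inhibition of growth.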 Calls of active or inactive are those of the source. No stated cut-off is given here; in the data, active = GI50 up to about 1.1 µM and inactive = higher.
# Legend:
# Experiment in all cases: NCI anticancer screen, dose series, 48 h
# [1] = system: A498
# [2] = system: A549
# [3] = system: CCRF-CEM
# [4] = system: HCT-116
# [5] = system: HCT-15
# [6] = system: HOP-62
# [7] = system: IGROV-1
# [8] = system: K562
# [9] = system: KM12
# [10] = system: LOX IMVI
# [11] = system: M14
# [12] = system: MCF7
# [13] = system: MDA-MB-231
# [14] = system: MOLT-4
# [15] = system: OVCAR-3
# [16] = system: PC-3
# [17] = system: SF-295
# [18] = system: SNB-75
# [19] = system: SR
# [20] = system: NCI-H522
SMILES,GI50 [1],GI50 [2],GI50 [3],GI50 [4],GI50 [5] [µM],GI50 [6],GI50 [7],GI50 [8],GI50 [9],GI50 [10],GI50 [11],GI50 [12],GI50 [13],GI50 [14],GI50 [15],GI50 [16],GI50 [17],GI50 [18],GI50 [19],GI50 [20]
Cc1c(C#N)c2nnn(-c3ccccc3)c(=O)n2c1-c1ccccc1,2.1 µM (inactive),1.29 µM (inactive),2.24 µM (inactive),0.619 µM (active),1.85,4.48 µM (inactive),1.48 µM (inactive),0.236 µM (active),0.839 µM (active),4.12 µM (inactive),0.959 µM (active),2.39 µM (inactive),12.3 µM (inactive),1.58 µM (inactive),0.824 µM (active),1.43 µM (inactive),0.752 µM (active),2.95 µM (inactive),0.863 µM (active),–
CC(C)CCCC(C)[C@H]1CC[C@H]2NCCCC[C@]12C (stereo partly drawn),9.84 µM (inactive),6.64 µM (inactive),1.37 µM (inactive),3.03 µM (inactive),2.43,9.08 µM (inactive),6.19 µM (inactive),2.01 µM (inactive),2.68 µM (inactive),1.85 µM (inactive),2.1 µM (inactive),2 µM (inactive),2.92 µM (inactive),2.28 µM (inactive),11.9 µM (inactive),3.07 µM (inactive),2.33 µM (inactive),6.03 µM (inactive),2.07 µM (inactive),–
Cc1csc2n(C)c(=O)c3ccccc3[n+]12,–,> 100 µM (inactive),> 100 µM (inactive),> 100 µM (inactive),> 100,> 100 µM (inactive),> 100 µM (inactive),> 100 µM (inactive),> 100 µM (inactive),> 100 µM (inactive),> 100 µM (inactive),> 100 µM (inactive),> 100 µM (inactive),> 100 µM (inactive),> 100 µM (inactive),> 100 µM (inactive),> 100 µM (inactive),–,> 100 µM (inactive),> 100 µM (inactive)
CCC(C=O)P1(=O)OC(C)(C)CN1C(C)(C)C (stereo not drawn),81.8 µM (inactive),> 100 µM (inactive),–,59.8 µM (inactive),99.8,62.5 µM (inactive),> 100 µM (inactive),77.8 µM (inactive),24.4 µM (inactive),> 100 µM (inactive),> 100 µM (inactive),84.3 µM (inactive),> 100 µM (inactive),–,20.6 µM (inactive),84.3 µM (inactive),32.5 µM (inactive),–,> 100 µM (inactive),–
Oc1cccc(/C=N/N=c2/[nH][nH]/c(=N/N=C/c3cccc(O)c3)c3ccccc23)c1,–,21.4 µM (inactive),3.83 µM (inactive),11.5 µM (inactive),11,12.5 µM (inactive),11.6 µM (inactive),18.3 µM (inactive),25.2 µM (inactive),11.7 µM (inactive),21.7 µM (inactive),26.7 µM (inactive),7.89 µM (inactive),0.426 µM (active),13.9 µM (inactive),15.8 µM (inactive),13.5 µM (inactive),12.9 µM (inactive),2.55 µM (inactive),17.3 µM (inactive)
c1ccc(C2OCC(OC3CCCCO3)CO2)cc1 (stereo not drawn),> 100 µM (inactive),> 100 µM (inactive),> 10 µM (inactive),> 100 µM (inactive),> 100,> 100 µM (inactive),> 100 µM (inactive),> 100 µM (inactive),–,> 100 µM (inactive),> 100 µM (inactive),> 100 µM (inactive),> 100 µM (inactive),5.24 µM (inactive),> 100 µM (inactive),> 100 µM (inactive),> 100 µM (inactive),–,> 100 µM (inactive),> 100 µM (inactive)
Cc1cc(=O)oc2c(CNC(CO)C(=O)O)c(O)ccc12 (stereo not drawn),–,> 100 µM (inactive),> 100 µM (inactive),> 100 µM (inactive),> 100,> 100 µM (inactive),> 100 µM (inactive),> 100 µM (inactive),> 100 µM (inactive),> 100 µM (inactive),> 100 µM (inactive),> 100 µM (inactive),> 100 µM (inactive),> 100 µM (inactive),> 100 µM (inactive),> 100 µM (inactive),> 100 µM (inactive),> 100 µM (inactive),94.2 µM (inactive),> 100 µM (inactive)
O=c1oc2c(Cl)cc(Cl)cc2cc1C1=CSC2=NCCN12,–,64.3 µM (inactive),31.3 µM (inactive),31 µM (inactive),44.7,38.8 µM (inactive),48.8 µM (inactive),34.4 µM (inactive),57.8 µM (inactive),59.8 µM (inactive),55.2 µM (inactive),28.8 µM (inactive),28.9 µM (inactive),39.3 µM (inactive),26.7 µM (inactive),42.1 µM (inactive),40 µM (inactive),65.8 µM (inactive),40.6 µM (inactive),–
CN(C)c1ccc(-c2nc(-c3cc4c(ccc5ccccc54)oc3=O)cs2)cc1,–,> 100 µM (inactive),> 100 µM (inactive),> 100 µM (inactive),> 100,> 100 µM (inactive),> 100 µM (inactive),> 100 µM (inactive),> 100 µM (inactive),> 100 µM (inactive),> 100 µM (inactive),> 100 µM (inactive),> 100 µM (inactive),> 100 µM (inactive),–,> 100 µM (inactive),> 100 µM (inactive),> 100 µM (inactive),> 100 µM (inactive),> 100 µM (inactive)
COC(=O)[C@H](Cc1c[nH]c2ccccc12)NC(=O)c1ccc(CNC(=O)/C=C/c2cccc(Oc3ccccc3)c2)cc1,> 100 µM (inactive),92.9 µM (inactive),56.1 µM (inactive),> 100 µM (inactive),81.7,> 100 µM (inactive),> 100 µM (inactive),63.5 µM (inactive),> 100 µM (inactive),–,23.2 µM (inactive),> 100 µM (inactive),> 100 µM (inactive),9.06 µM (inactive),> 100 µM (inactive),> 100 µM (inactive),> 100 µM (inactive),79.1 µM (inactive),22.4 µM (inactive),–
CCN(CC)CCO/N=C1/C=C2CCC3C(CC[C@@]4(C)C3CC[C@]4(C)O)[C@@]2(C)CC1 (stereo partly drawn),0.195 µM (active),7.36 µM (inactive),1.29 µM (inactive),4.21 µM (inactive),2.29,4.06 µM (inactive),4.8 µM (inactive),4.48 µM (inactive),5.43 µM (inactive),4.1 µM (inactive),8.79 µM (inactive),3.95 µM (inactive),14.1 µM (inactive),1.91 µM (inactive),2.8 µM (inactive),4.6 µM (inactive),2.33 µM (inactive),2.89 µM (inactive),–,2.16 µM (inactive)
O=C(O)CCCNc1ncc2c(n1)-c1ccccc1OC2,–,> 100 µM (inactive),> 100 µM (inactive),> 100 µM (inactive),> 100,> 100 µM (inactive),47.8 µM (inactive),> 100 µM (inactive),> 100 µM (inactive),> 100 µM (inactive),> 100 µM (inactive),> 100 µM (inactive),> 100 µM (inactive),> 100 µM (inactive),> 100 µM (inactive),> 100 µM (inactive),> 100 µM (inactive),33.8 µM (inactive),> 100 µM (inactive),> 100 µM (inactive)
Cc1nn(C(=O)c2ccccc2O)c2c1C(c1ccccc1)SC(=N)N2 (stereo not drawn),–,0.6 µM (active),2.36 µM (inactive),0.906 µM (active),3.86,2.64 µM (inactive),0.481 µM (active),0.413 µM (active),3.53 µM (inactive),3.1 µM (inactive),1.69 µM (inactive),2.81 µM (inactive),0.811 µM (active),2.75 µM (inactive),1.79 µM (inactive),4.57 µM (inactive),3.74 µM (inactive),0.311 µM (active),2.42 µM (inactive),3.19 µM (inactive)
COc1cc(-c2c3c(cc4c2OCO4)[C@@H](Nc2ccc4c(c2)Cc2cc(N[C@@H]5c6cc7c(cc6C(c6cc(OC)c(O)c(OC)c6)[C@H]6C(=O)OC[C@H]56)OCO7)ccc2-4)[C@H]2COC(=O)[C@@H]2C3)cc(OC)c1O (stereo partly drawn),44.3 µM (inactive),47.2 µM (inactive),> 100 µM (inactive),21.8 µM (inactive),43.8,18.5 µM (inactive),1.56 µM (inactive),–,26.5 µM (inactive),51.3 µM (inactive),21.9 µM (inactive),27.9 µM (inactive),21 µM (inactive),> 100 µM (inactive),55.5 µM (inactive),10.9 µM (inactive),20.3 µM (inactive),> 100 µM (inactive),11.6 µM (inactive),–
C[C@@H]1C(O)CC[C@H](C)C12CC=CC2=O (stereo partly drawn),> 100 µM (inactive),> 100 µM (inactive),–,> 100 µM (inactive),> 100,> 100 µM (inactive),> 100 µM (inactive),> 100 µM (inactive),–,> 100 µM (inactive),–,> 100 µM (inactive),> 100 µM (inactive),> 100 µM (inactive),> 100 µM (inactive),> 100 µM (inactive),> 100 µM (inactive),–,> 100 µM (inactive),> 100 µM (inactive)
